Experiment [1] addresses OGG1 (Homo sapiens (Human), UniProt O15527). As to the kind of experiment: In vitro OGG1 activity assay. It is filed as biochemical. The conditions noted are these: 800 pM OGG1 enzyme, 2 nM human APEX1, 10 nM 8-oxoA:C substrate. An outline of the steps: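 Fluorescence-release assay on a duplex oligonucleotide carrying an OGG1 substrate base beside a fluorophore, quenched from the complementary strand. Excess APEX1 cleaves the abasic site left by base excision, melting the duplex and unquenching the fluorophore. Compounds in DMSO were dispensed before enzyme and substrate, and fluorescein signal was read.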

Experiment [2] deals with MLE12 cells. The experiment in a line: Cell viability assay in MLE12 cells (resazurin). The class given is cell-based, mouse. Particulars: Mus musculus, MLE12, 24 h, TNF-α 20 ng/ml, resazurin added after 24 hours culture. As for the experimental part:
(§1) Stock solutions (10 mM in DMSO) of compounds were dispensed in V-bottom 384-well plates and the following dilutions were prepared: 10 mM and 0.05 mM. The dilutions were transferred to the source plate. Duplicate 6 points dose-response curves of compounds were nano-dispensed in cell plates (CCL2 assay) and in parallel, 11 points DR curves in duplicates were nano-dispensed for the viability assay. The plates were heat sealed and kept at RT until use.
(§2) MLE12 cells in flasks were washed once with PBS, detached with Trypsin/EDTA, resuspended in fresh medium and counted. Cells were diluted to 3×10^5 cells/ml and seeded with Multidrop Combi in cell plates pre-dispensed with compounds, 25 μl/well (7500 cells/well). The plates were placed, one by one, in a CO2-incubator at 37° C. for 1 hour after which 25 μl/well of TNF-α (final concentration 20 ng/ml) were added. The plates were transferred back to the CO2-incubator placed in a plastic box with wet tissue in the bottom, to avoid evaporation, for 30 hours.
After 24 hours culture, resazurin reagent (stock 1 mg/ml in PBS) diluted 1:17 in PBS was added with Multidrop Combi, 10 μl/well, and plates were incubated for 6 hours. Plates were read in Sense plate reader with resorufin protocol (ex544 nm/em595 nm). The results were imported to an excel template where the EC50 values were calculated using XLfit.
On the technique in general: Alamar Blue is a resazurin reagent that responds to reducing activity.

The subject of experiment [3] is CCL2. As to the kind of experiment: Mouse CCL2 assay in MLE12 cells. It is filed as cell-based. The conditions noted are these: Mus musculus, MLE12, 30 h, MLE12 cells; TNF-α 20 ng/ml; supernatant after 30 hours; HTRF; read-out: CCL2 (EC50).
Description: Cisbio mouse CCL2 assay is intended for the quantitative measurement of CCL2 in supernatant using HTRF® technology. The assay is compatible with mouse samples, and is highly specific for CCL2. CCL2 is detected in a sandwich assay format using 2 different specific antibodies, one labeled with Cryptate (donor) and the second with d2 (acceptor). The detection principle is based on HTRF® technology. When the labelled antibodies bind to the same antigen, the excitation of the donor with a light source (laser or flash lamp) triggers a Fluorescence Resonance Energy Transfer (FRET) towards the acceptor, which in turn fluoresces at a specific wavelength (665 nm). The two antibodies bind to the CCL2 present in the sample, thereby generating FRET. Signal intensity is proportional to the number of antigen-antibody complexes formed and therefore to the CCL2 concentration. • Materials: • Cells: MLE12 (Mouse Lung Epithelial cells, SV40 transformed) • Medium: DMEM/F12 (Gibco #11330057), FBS 5% (Gibco #10500064), Pen/Strep 50 U/50 μg/ml (Gibco #15070063) • Cell plates: 384-well, black/clear, TC-treated (Corning #3764) • Source plate: Labcyte LDV 384 (Labcyte #LP-0200) • Compound dilution plate: V-bottom 384-well PP plate (Greiner #781280) • Compounds: 10 mM stocks in DMSO • HTRF plates: 384-well, white, half area, non-binding (Costar #3824) • Mouse CCL2 kit: Cisbio 62MCCL2PEH • Other reagents: Trypsin/EDTA 10× (Gibco #15400054), PBS (Gibco #14190169), Resazurin (Sigma-Aldrich #199303), 1 mg/ml in PBS, TNF-α 200 μg/ml in PBS (Peprotech #300-01A) • Instruments: • Echo liquid handler (Labcyte) • Multidrop Combi (Thermo Scientific) • Sense plate reader (Hidex) Compound Handling:
as §1, §2
After 30 hours incubation, the plates were spun down 5 minutes at 400 g, and 16 μl/well of the supernatants were transferred to the assay plate. A mCCL2 standard curve was prepared according to the kit protocol and 16 μl/well of the standards were also added to the assay plate.
The anti-CCL2 antibody mix was prepared according to the kit protocol, and 4 μl/well were added to the assay plate. The plate was sealed and incubated over night at RT. After incubation the plate was read in Sense plate reader with Time-resolved FRET protocol (Ex330 nm/Em 620 and 665 nm). After data reduction, the delta ratios were imported to an excel template where the IC50 values were calculated.
For orientation: In TR-FRET formats the signal depends on donor and acceptor labels being close together.

Chain of OGG1 (O15527 whole entry): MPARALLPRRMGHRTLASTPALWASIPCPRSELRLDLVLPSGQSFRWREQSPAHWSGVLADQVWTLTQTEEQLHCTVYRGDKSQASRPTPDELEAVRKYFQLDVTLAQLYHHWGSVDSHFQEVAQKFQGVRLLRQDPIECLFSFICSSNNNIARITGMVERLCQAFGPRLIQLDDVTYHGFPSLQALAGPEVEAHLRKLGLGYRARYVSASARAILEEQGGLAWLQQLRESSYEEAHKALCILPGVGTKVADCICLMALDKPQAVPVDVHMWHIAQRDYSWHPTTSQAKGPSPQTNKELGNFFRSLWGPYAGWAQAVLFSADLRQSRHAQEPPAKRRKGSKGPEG

For the compound `COc1cc(NC(=O)N2CCC(n3c(=O)[nH]c4c(-n5cccn5)cccc43)CC2)ccc1C` [Example 117, N-(3-methoxy-4-methylphenyl)-4-[2-oxo-4-(1H-pyrazol-1-yl)-2,3-dihydro-1H-1,3-benzodiazol-1-yl]piperidine-1-carboxamide], the IC50 was determined as 1.36 µM in experiment [1] and 14.4 µM in experiment [2]. The concentration for a half-maximal effect (EC50) in experiment [3] stood at 65.2 µM.
The like results for `O=c1[nH]c2c(Br)cccc2n1[C@H]1CC[C@@H](C(=O)Nc2ccc3cc[nH]c3c2)CC1` [Example 135, (Cis)-4-(4-bromo-2-oxo-2,3-dihydro-1H-1,3-benzodiazol-1-yl)-N-(1H-indol-6-yl)cyclohexane-1-carboxamide] were, in that order, 0.094 µM, 9 µM and 23.3 µM.
The corresponding values for `COc1cc(NC(=O)[C@H]2CC[C@@H](n3c(=O)[nH]c4c(O)cccc43)CC2)ccc1C` [Example 227, Cis-4-(4-hydroxy-2-oxo-2,3-dihydro-1H-1,3-benzodiazol-1-yl)-N-(3-methoxy-4-methylphenyl)cyclohexane-1-carboxamide] are 0.0179 µM, 16.5 µM and 27.5 µM.
Regarding `CNCCN(C)c1cccc2c1[nH]c(=O)n2[C@H]1CC[C@@H](C(=O)Nc2ccc(C)c(OC)c2)CC1` [Example 297, Cis-N-(3-methoxy-4-methylphenyl)-4-(4-{methyl[2-(methylamino)ethyl]amino}-2-oxo-2,3-dihydro-1H-1,3-benzodiazol-1-yl)cyclohexane-1-carboxamide], the IC50 in experiment [1] is 0.00807 µM; in experiment [2], 28.9 µM. Also, the EC50 in experiment [3] turned out to be 30.8 µM.
Turning to `Cc1ccc(NC(=O)[C@H]2CC[C@@H](n3c(=O)[nH]c4c(Br)cccc43)CC2)cc1` [Example 139, (Cis)-4-(4-bromo-2-oxo-2,3-dihydro-1H-1,3-benzodiazol-1-yl)-N-(4-methylphenyl)cyclohexane-1-carboxamide], the results for the half-inhibitory concentration (IC50) in experiment [1] and in experiment [2] were 0.058 µM and 10.1 µM, respectively. In addition, in experiment [3], the 50% effective concentration (EC50) came to 31.8 µM.
Consider `O=C(Nc1ccc(I)cc1)N1CCC(n2c(=O)[nH]c3cc(Cl)ccc32)CC1` [Example 2, 4-(5-Chloro-2-oxo-2,3-dihydro-1H-1,3-benzodiazol-1-yl)-N-(4-iodophenyl) piperidine-1-carboxamide], for which half-maximal inhibition in experiment [2] (IC50) required 10.3 µM. For the same compound, in experiment [3], the half-maximal effective concentration (EC50) came out at 15.4 µM.
The like results for `O=C(Nc1ccc(I)cc1)N1CCC(n2c(=O)[nH]c3c(-n4cc(Br)cn4)cccc32)CC1` [Example 41, 4-[4-(4-Bromo-1H-pyrazol-1-yl)-2-oxo-2,3-dihydro-1H-1,3-benzodiazol-1-yl]-N-(4-iodophenyl)piperidine-1-carboxamide] were, in that order, 16.6 µM and 50.7 µM.
The corresponding values for `O=c1[nH]c2c(Br)cccc2n1[C@H]1CC[C@@H](C(=O)Nc2ccc(Cl)c(F)c2)CC1` [Example 121, (Cis)-4-(4-bromo-2-oxo-2,3-dihydro-1H-1,3-benzodiazol-1-yl)-N-(4-chloro-3-fluorophenyl)cyclohexane-1-carboxamide] are 4.86 µM and 13 µM.
Turning to `O=C(Nc1ccc(I)cc1)N1CCC(n2c(=O)[nH]c3c(-c4cccnc4)cccc32)CC1` [Example 26, N-(4-iodophenyl)-4-[2-oxo-4-(pyridin-3-yl)-2,3-dihydro-1H-1,3-benzodiazol-1-yl]piperidine-1-carboxamide], the IC50 in experiment [2] worked out at 7.7 µM. Further, the EC50 in experiment [3] stood at 15 µM.
The corresponding values for `Cc1ccc(NC(=O)[C@H]2CC[C@@H](n3c(=O)[nH]c4c(Br)cccc43)CC2)cc1C` [Example 124, (Cis)-4-(4-bromo-2-oxo-2,3-dihydro-1H-1,3-benzodiazol-1-yl)-N-(3,4-dimethylphenyl)cyclohexane-1-carboxamide] are 11.5 µM and 31.2 µM.
Regarding `COc1cc(NC(=O)[C@H]2CC[C@@H](n3c(=O)[nH]c4c(Br)cccc43)CC2)ccc1F` [Example 130, (Cis)-4-(4-bromo-2-oxo-2,3-dihydro-1H-1,3-benzodiazol-1-yl)-N-(4-fluoro-3-methoxyphenyl)cyclohexane-1-carboxamide], inhibition in experiment [2] was half-maximal at 6.36 µM (IC50). For the same compound, in experiment [3], the EC50 worked out at 22.6 µM.
The like results for `COc1cc(NC(=O)[C@H]2CC[C@@H](n3c(=O)[nH]c4c(N)cccc43)CC2)ccc1C` [Example 249, Cis-4-(4-amino-2-oxo-2,3-dihydro-1H-1,3-benzodiazol-1-yl)-N-(3-methoxy-4-methylphenyl)cyclohexane-1-carboxamide] were, in that order, 15.7 µM and 34.7 µM.
The like results for `Nc1cccc2c1[nH]c(=O)n2C1CCN(C(=O)Nc2ccc(I)cc2)CC1` [Example 20, 4-(4-Amino-2-oxo-2,3-dihydro-1H-1,3-benzodiazol-1-yl)-N-(4-iodophenyl)piperidine-1-carboxamide] were, in that order, 11.5 µM and 33 µM.
In experiment [1], `COc1cc(NC(=O)[C@H]2CC[C@@H](n3c(=O)[nH]c4c(C(=O)NCCN5CCNCC5)cccc43)CC2)ccc1C` [Example 252, 2-Oxo-N-[2-(piperazin-1-yl)ethyl]-1-[cis-4-[(3-methoxy-4-methylphenyl)carbamoyl]cyclohexyl]-2,3-dihydro-1H-1,3-benzodiazole-4-carboxamide] had an IC50 of 0.00394 µM.
The same measure, in the same setting: in the case of `COc1ccc(NC(=O)[C@H]2CC[C@@H](n3c(=O)[nH]c4c(OC)cccc43)CC2)cc1` [Example 205, Cis-4-(4-methoxy-2-oxo-2,3-dihydro-1H-1,3-benzodiazol-1-yl)-N-(4-methoxyphenyl)cyclohexane-1-carboxamide] it was 0.0745 µM.
On the same count and under the same terms, then `Cn1cc(NC(=O)[C@H]2CC[C@@H](n3c(=O)[nH]c4c(Br)cccc43)CC2)cn1` [Example 170, (Cis)-4-(4-bromo-2-oxo-2,3-dihydro-1H-1,3-benzodiazol-1-yl)-N-(1-methyl-1H-pyrazol-4-yl)cyclohexane-1-carboxamide], with 8.8 µM; and `COc1ccc(NC(=O)N2CCC(n3c(=O)[nH]c4c(N5Cc6cn[nH]c6C5)cccc43)CC2)cc1Cl` [Example 108, N-(3-chloro-4-methoxyphenyl)-4-(2-oxo-4-{1H,4H,5H,6H-pyrrolo[3,4-c]pyrazol-5-yl}-2,3-dihydro-1H-1,3-benzodiazol-1-yl)piperidine-1-carboxamide], with 2.53 µM.
Still for that read-out and setting: then `COc1ccc(NC(=O)N2CCC(n3c(=O)[nH]c4cc(C)cnc43)CC2)cc1Cl` [Example 181, N-(3-Chloro-4-methoxyphenyl)-4-{6-methyl-2-oxo-1H,2H,3H-imidazo[4,5-b]pyridin-3-yl}piperidine-1-carboxamide], with 7.09 µM; and `COc1cc(Cl)cc(NC(=O)[C@H]2CC[C@@H](n3c(=O)[nH]c4c(Br)cccc43)CC2)c1` [Example 163, (Cis)-4-(4-bromo-2-oxo-2,3-dihydro-1H-1,3-benzodiazol-1-yl)-N-(3-chloro-5-methoxyphenyl)cyclohexane-1-carboxamide], with 3.16 µM; and `COc1ccc(NC(=O)N2CCC(n3c(=O)[nH]c4c(-c5ccc(N)nc5)cccc43)CC2)cc1Cl` [Example 99, 4-[4-(6-Aminopyridin-3-yl)-2-oxo-2,3-dihydro-1H-1,3-benzodiazol-1-yl]-N-(3-chloro-4-methoxyphenyl)piperidine-1-carboxamide], with 1.17 µM.

What is called IC50 is the concentration needed to halve the response being measured. Lower therefore signals greater potency in that assay. For orientation: EC50 means the concentration that produces a half-maximal response.

(Values after patent US11970474B2, “Substituted benzodiazoles and use thereof in therapy” (THOMAS HELLEDAYS STIFTELSE FÖR MEDICINSK FORSKNING, priority 2018, dated 2024).)
